Patent US11046699B2, “Pyrazolo-pyrimidin-amino-cycloalkyl compounds and their therapeutic uses” (RAPT THERAPEUTICS, INC., priority 2018, dated 2021)

Molecular target: GCN2 (Homo sapiens, UniProt Q9P2K8)
Experiment: GCN2 enzymatic endpoint assay: phosphorylation of GFP-eIF2α measured by TR-FRET (Lanthascreen)
Format: biochemical
Conditions: tested as described in Example 77; compound and/or hydrochloride, dihydrochloride or trifluoroacetic acid salt; read-out: IC 50 Activity
In short: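 2 μM ATP, 80 nM GFP-eIF2α, RT, 90 min; EDTA stop. Tb-anti-phospho antibody TR-FRET read, 520/495 nm ratio.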

GCN2, sequence (Q9P2K8 whole entry): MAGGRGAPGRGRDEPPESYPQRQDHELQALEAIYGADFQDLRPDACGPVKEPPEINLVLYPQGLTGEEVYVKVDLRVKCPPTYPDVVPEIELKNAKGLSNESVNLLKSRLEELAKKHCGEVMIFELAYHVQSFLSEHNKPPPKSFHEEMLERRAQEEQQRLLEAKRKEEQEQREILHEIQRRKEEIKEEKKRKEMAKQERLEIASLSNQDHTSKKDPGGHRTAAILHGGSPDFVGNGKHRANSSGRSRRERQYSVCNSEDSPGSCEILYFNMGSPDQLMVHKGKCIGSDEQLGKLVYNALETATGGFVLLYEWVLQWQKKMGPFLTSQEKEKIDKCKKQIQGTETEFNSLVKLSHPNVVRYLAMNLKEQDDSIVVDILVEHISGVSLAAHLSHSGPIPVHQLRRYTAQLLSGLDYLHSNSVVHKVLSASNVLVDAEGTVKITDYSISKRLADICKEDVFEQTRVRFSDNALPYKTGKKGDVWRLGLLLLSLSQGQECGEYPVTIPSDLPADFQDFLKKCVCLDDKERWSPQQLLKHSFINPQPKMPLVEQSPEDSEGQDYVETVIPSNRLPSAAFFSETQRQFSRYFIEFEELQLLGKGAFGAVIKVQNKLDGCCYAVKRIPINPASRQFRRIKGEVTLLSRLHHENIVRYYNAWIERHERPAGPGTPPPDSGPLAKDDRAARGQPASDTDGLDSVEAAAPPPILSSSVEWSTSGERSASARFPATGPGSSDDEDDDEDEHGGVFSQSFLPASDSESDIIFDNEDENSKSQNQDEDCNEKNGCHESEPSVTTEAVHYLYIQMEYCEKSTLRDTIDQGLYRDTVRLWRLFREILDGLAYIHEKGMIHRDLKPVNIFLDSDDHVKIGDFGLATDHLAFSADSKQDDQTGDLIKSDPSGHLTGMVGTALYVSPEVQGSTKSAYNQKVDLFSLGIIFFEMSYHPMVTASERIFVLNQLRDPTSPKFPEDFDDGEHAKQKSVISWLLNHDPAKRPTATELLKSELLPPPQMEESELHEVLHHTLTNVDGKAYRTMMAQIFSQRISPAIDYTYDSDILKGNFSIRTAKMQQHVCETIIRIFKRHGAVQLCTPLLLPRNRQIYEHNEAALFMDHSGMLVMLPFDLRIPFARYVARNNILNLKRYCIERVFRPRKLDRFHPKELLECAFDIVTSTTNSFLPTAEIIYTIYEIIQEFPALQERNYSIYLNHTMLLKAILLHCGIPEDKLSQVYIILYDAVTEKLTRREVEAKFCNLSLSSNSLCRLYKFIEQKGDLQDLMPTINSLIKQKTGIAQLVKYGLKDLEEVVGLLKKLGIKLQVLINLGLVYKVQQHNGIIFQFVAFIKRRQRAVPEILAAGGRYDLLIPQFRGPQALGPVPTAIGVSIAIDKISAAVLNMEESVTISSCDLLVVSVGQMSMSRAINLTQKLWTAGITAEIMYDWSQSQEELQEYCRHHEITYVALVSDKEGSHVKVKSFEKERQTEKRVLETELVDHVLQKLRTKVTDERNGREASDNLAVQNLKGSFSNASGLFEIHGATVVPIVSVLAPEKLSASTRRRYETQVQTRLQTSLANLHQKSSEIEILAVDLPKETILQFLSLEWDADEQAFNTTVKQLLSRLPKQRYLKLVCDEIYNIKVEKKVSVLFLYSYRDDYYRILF

| IC50 [nM] | Structure (SMILES) |
| --- | --- |
| 25 to 200 | C[C@H]1CN(C)C(=O)CN1C(=O)[C@@H]1CC[C@@H](Nc2ncc3c(Br)nn(-c4cc(F)c5ncccc5c4)c3n2)C1 [(S)-4-((1R,3R)-3-((3-bromo-1-(8-fluoroquinolin-6-yl)-1H-pyrazolo[3,4-d]pyrimidin-6-yl)amino)cyclopentane-1-carbonyl)-1,5-dimethyl-piperazin-2-one] |
| 25 to 200 | CNC(=O)[C@]1(C)CC[C@@H](Nc2ncc3c(Br)nn(-c4cc([C@H](C)N)c5nccnc5c4)c3n2)C1 [(1R,3R)-3-[[1-[8-[(1S)-1-aminoethyl]quinoxalin-6-yl]-3-bromo-pyrazolo [3,4-d]pyrimidin-6-yl]amino]-N,1-dimethyl-cyclopentanecarboxamide] |
| 25 to 200 | CNC(=O)[C@]1(C)CC[C@@H](Nc2ncc3c(Br)nn(-c4ccc5c(c4)N(C(=O)C4CNC4)CC5)c3n2)C1 [(1R,3R)-3-[[1-[1-(azetidine-3-carbonyl)indolin-6-yl]-3-bromo-pyrazolo[3,4-d]pyrimidin-6-yl]amino]-N,1-dimethyl-cyclopentanecarboxamide] |
| 25 to 200 | CNC(=O)[C@]1(C)CC[C@@H](Nc2ncc3c(Br)nn(-c4ccc(-c5nnc(C6CC6)o5)cc4)c3n2)C1 [(1R,3R)-3-[[3-bromo-1-[4-(5-cyclopropyl-1,3,4-oxadiazol-2-yl)phenyl]pyrazolo[3,4-d]pyrimidin-6-yl]amino]-N,1-dimethyl-cyclopentane-carboxamide] |
| 25 to 200 | CNC(=O)[C@]1(OC)CC[C@@H](Nc2ncc3c(Br)nn(-c4cc(F)c5ncccc5c4)c3n2)C1 [(1S,3R)-3-[[3-bromo-1-(8-fluoro-6-quinolyl)pyrazolo[3,4-d]pyrimidin-6-yl]amino]-1-methoxy-N-methyl-cyclopentanecarboxamide] |
| 25 to 200 | CNC(=O)[C@]1(C)CC[C@@H](Nc2ncc3c(Br)nn(-c4cc(CCNC(C)=O)c5ncccc5c4)c3n2)C1 [(1R,3R)-3-[[1-[8-(2-acetamidoethyl)-6-quinolyl]-3-bromo-pyrazolo[3,4-d]pyrimidin-6-yl]amino]-N,1-dimethyl-cyclopentane-carboxamide] |
| < 25 | CNC(=O)[C@]1(C)CC[C@@H](Nc2ncc3c(Br)nn(-c4ccc5ncc(CCO)cc5c4)c3n2)C1 [(1R,3R)-3-[[3-bromo-1-[3-(2-hydroxyethyl)-6-quinolyl]pyrazolo[3,4-d]pyrimidin-6-yl]amino]-N,1-dimethyl-cyclopentane-carboxamide] |
| 500 to 1000 | COCCNC(=O)[C@@H]1CC[C@@H](Nc2ncc3c(Br)nn(-c4ccc5nccn5c4)c3n2)C1 [(1R,3R)-3-((3-bromo-1-(imidazo[1,2-a]pyridin-6-yl)-1H-pyrazolo[3,4-d]pyrimidin-6-yl)amino)-N-(2-methoxyethyl)cyclopentane-1-carboxamide] |
| 25 to 200 | Cc1nnc(-c2ccc(-n3nc(Br)c4cnc(N[C@@H]5CC[C@@](C)(C(=O)NC6CC6)C5)nc43)cc2CCC#N)s1 [(1R,3R)-3-[[3-bromo-1-[3-(2-cyanoethyl)-4-(5-methyl-1,3,4-thiadiazol-2-yl)phenyl]pyrazolo[3,4-d]pyrimidin-6-yl]amino]-N-cyclopropyl-1-methyl-cyclopentane-carboxamide] |
| 25 to 200 | O=C(NC[C@H]1COCCN1)[C@@H]1CC[C@@H](Nc2ncc3c(Br)nn(-c4cc(F)c5ncccc5c4)c3n2)C1 |
| 25 to 200 | CNC(=O)[C@]1(C)CC[C@@H](Nc2ncc3c(Br)nn(-c4ccc(-c5ncco5)c(NC(=O)CC#N)c4)c3n2)C1 [(1R,3R)-3-[[3-bromo-1-[3-[(2-cyanoacetyl)amino]-4-oxazol-2-yl-phenyl]pyrazolo [3,4-d]pyrimidin-6-yl]amino]-N,1-dimethyl-cyclopentanecarboxamide] |
| < 25 | C[C@@]1(C(=O)N2CNC(=O)C2)CC[C@@H](Nc2ncc3c(Br)nn(-c4cc(F)c5ncccc5c4)c3n2)C1 [1-[(1R,3R)-3-[[3-bromo-1-(8-fluoro-6-quinolyl)pyrazolo[3,4-d]pyrimidin-6-yl]amino]-1-methyl-cyclopentanecarbonyl] imidazolidin-4-one] |
| 25 to 200 | CNC(=O)[C@]1(C)CC[C@@H](Nc2ncc3c(Br)nn(-c4ccc5c(c4)CCC(=O)N5CC(F)F)c3n2)C1 [(1R,3R)-3-[[3-bromo-1-[1-(2,2-difluoro-ethyl)-2-oxo-3,4-dihydroquinolin-6-yl]pyrazolo[3,4-d]pyrimidin-6-yl]amino]-N,1-dimethyl-cyclopentanecarboxamide] |
| 25 to 200 | CNC(=O)[C@]1(C)CC[C@@H](Nc2ncc3c(Br)nn(-c4cc(Cl)cc(C(=O)NC5CNC5)c4)c3n2)C1 [N-(azetidin-3-yl)-3-[3-bromo-6-[[(1R,3R)-3-methyl-3-(methylcarbamoyl)cyclopentyl]amino]pyrazolo[3,4-d]pyrimidin-1-yl]-5-chloro-benzamide] |
| < 25 | CNC(=O)[C@]1(C)CC[C@@H](Nc2ncc3c(Br)nn(-c4cc(CC(C)O)c5ncccc5c4)c3n2)C1 (stereo partly drawn) [(1R,3R)-3-[[3-bromo-1-[8-(2-hydroxy-propyl)-6-quinolyl]pyrazolo[3,4-d]pyrimidin-6-yl]amino]-N,1-dimethyl-cyclopentanecarboxamide] |
| 25 to 200 | COCCNS(=O)(=O)[C@H]1CC[C@@H](Nc2ncc3c(Br)nn(-c4ccc(-c5nnc(C)s5)cc4)c3n2)C1 [(1S,3R)-3-[[3-bromo-1-[4-(5-methyl-1,3,4-thiadiazol-2-yl)phenyl]pyrazolo[3,4-d]pyrimidin-6-yl]amino]-N-(2-methoxyethyl)cyclopentanesulfonamide] |
| < 25 | CNC(=O)[C@]1(C)CC[C@@H](Nc2ncc3c(Br)nn(-c4ccc5c(=O)n(C)c(=O)n(C)c5c4)c3n2)C1 [(1R,3R)-3-[[3-bromo-1-(1,3-dimethyl-2,4-dioxo-quinazolin-7-yl)pyrazolo [3,4-d]pyrimidin-6-yl]amino]-N,1-dimethyl-cyclopentanecarboxamide] |
| < 25 | CNC(=O)[C@@]1(C)CC[C@@H](Nc2ncc3c(Br)nn(-c4ccc5nc(OC)ccc5c4)c3n2)C1 [(1S,3R)-3-[[3-bromo-1-(2-methoxy-6-quinolyl)pyrazolo[3,4-d]pyrimidin-6-yl]amino]-N,1-dimethyl-cyclopentane-carboxamide] |
| < 25 | CCC(=O)N1CCN(C(=O)[C@@H]2CC[C@@H](Nc3ncc4c(Br)nn(-c5cc(F)c6ncccc6c5)c4n3)C2)C1 [1-[3-[(1R,3R)-3-[[3-bromo-1-(8-fluoro-6-quinolyl)pyrazolo[3,4-d]pyrimidin-6-yl]amino]cyclopentanecarbonyl]imidazolidin-1-yl]propan-1-one] |
| 25 to 200 | CNC(=O)[C@]1(C)CC[C@@H](Nc2ncc3c(Br)nn(-c4cc(C5=CCNC5)c5ncccc5c4)c3n2)C1 [(1R,3R)-3-[[3-bromo-1-[8-(2,5-dihydro-1H-pyrrol-3-yl)-6-quinolyl]pyrazolo [3,4-d]pyrimidin-6-yl]amino]-N,1-dimethyl-cyclopentanecarboxamide] |
| 25 to 200 | CNC(=O)[C@]1(C)CC[C@@H](Nc2ncc3c(Br)nn(-c4cc(CCCN)c5ncccc5c4)c3n2)C1 [(1R,3R)-3-[[1-[8-(3-aminopropyl)-6-quinolyl]-3-bromo-pyrazolo[3,4-d]pyrimidin-6-yl]amino]-N,1-dimethyl-cyclopentanecarboxamide] |
| 25 to 200 | CNC(=O)[C@]1(C)CC[C@@H](Nc2ncc3c(Br)nn(-c4ccc(-c5nnc(C)[nH]5)cc4)c3n2)C1 [(1R,3R)-3-[[3-bromo-1-[4-(5-methyl-4H-1,2,4-triazol-3-yl)phenyl]pyrazolo[3,4-d]pyrimidin-6-yl]amino]-N,1-dimethyl-cyclopentanecarboxamide] |
| 25 to 200 | CNC(=O)[C@]1(C)CC[C@@H](Nc2ncc3c(Br)nn(-c4ccc5c(c4)OCC(=O)N5C(C)C)c3n2)C1 [(1R,3R)-3-[[3-bromo-1-(4-isopropyl-3-oxo-1,4-benzoxazin-7-yl)pyrazolo[3,4-d]pyrimidin-6-yl]amino]-N,1-dimethyl-cyclopentanecarboxamide] |
| 25 to 200 | CNC(=O)[C@]1(C)CC[C@@H](Nc2ncc3c(Br)nn(-c4ccc5c(c4)CN(C(=O)C4CN(C(=O)C(F)(F)F)C4)CC5)c3n2)C1 [(1R,3R)-3-[[3-bromo-1-[2-[1-(2,2,2-trifluoroacetyl)azetidine-3-carbonyl]-3,4-dihydro-1H-isoquinolin-7-yl]pyrazolo[3,4-d]pyrimidin-6-yl]amino]-N,1-dimethyl-cyclopentanecarboxamide] |
| < 25 | CC1(C(=O)N2CCNCC2)CC[C@@H](Nc2ncc3c(Br)nn(-c4cc(F)c5ncccc5c4)c3n2)C1 (stereo partly drawn) [[(3R)-3-[[3-bromo-1-(8-fluoro-6-quinolyl)pyrazolo[3,4-d]pyrimidin-6-yl]amino]-1-methyl-cyclopentyl]-piperazin-1-yl-methanone] |
| 25 to 200 | C[C@H]1CN(C(=O)[C@@H]2CC[C@@H](Nc3ncc4c(Br)nn(-c5ccc6ncccc6c5)c4n3)C2)C[C@H](C)O1 [((1R,3R)-3-((3-bromo-1-(quinolin-6-yl)-1H-pyrazolo[3,4-d]pyrimidin-6-yl)amino)cyclo-pentyl)((2S,6S)-2,6-dimethylmorpholino) methanone] |
| 25 to 200 | Cc1nnc(-c2ccc(-n3nc(Br)c4cnc(N[C@@H]5CC[C@](C)(O)C5)nc43)cc2CCC#N)s1 [3-[5-[3-bromo-6-[[(1R,3S)-3-hydroxy-3-methyl-cyclopentyl]amino]pyrazolo [3,4-d]pyrimidin-1-yl]-2-(5-methyl-1,3,4-thiadiazol-2-yl)phenyl]propanenitrile] |
| 25 to 200 | CC(O)C(=O)N1CCN(C(=O)[C@@H]2CC[C@@H](Nc3ncc4c(Br)nn(-c5ccc6ncccc6c5)c4n3)C2)CC1 (stereo partly drawn) [1-(4-((1R,3R)-3-((3-bromo-1-(quinolin-6-yl)-1H-pyrazolo[3,4-d]pyrimidin-6-yl)amino)cyclopentane-1-carbonyl)piperazin-1-yl)-2-hydroxypropan-1-one] |

| Structure (SMILES) | IC50 [nM] |
| --- | --- |
| CNC(=O)[C@]1(C)CC[C@@H](Nc2ncc3c(Br)nn(-c4ccc5ncn(CCCN)c(=O)c5c4)c3n2)C1 | 25 to 200 |
| CNC(=O)[C@]1(C)CC[C@@H](Nc2ncc3c(Br)nn(-c4cc(Cl)c(F)c(CNS(C)(=O)=O)c4)c3n2)C1 | 25 to 200 |
